Data from US7342024B2, “4-Oxo-1-3-substituted phenyl-1,4-dihydro-1,8-naphthyridine-3-carboxamide phosphodiesterase-4 inhibitors” (Merck Frost Canada Ltd., priority 2002, dated 2008).
pIC50: −log10 of the molar value.

Biological target: T1, human recombinant phosphodiesterase IVb (met-248) (Homo sapiens, UniProt Q07343)
T1 construct: fused on or other part: GST (glutathione transferase) fused on as a tag
Assay: SPA based PDE activity assay
Type: biochemical
Conditions: 100 nM cAMP, purified GST fusion protein of PDE IVb (met-248) from baculovirus/Sf-9
Description: Compounds which inhibit the hydrolysis of cAMP to AMP by the type-IV cAMP-specific phosphodiesterases were screened in a 96-well plate format as follows:
In a 96 well-plate at 30° C. was added the test compound (dissolved in 2 μL DMSO), […] of substrate buffer containing [2,8-^3H] adenosine 3′,5′-cyclic phosphate (cAMP, 110 nM to 50 μM), 10 mM MgCl2, 1 mM EDTA, 50 mM Tris, pH 7.5. The reaction was initiated by the addition of […] of human recombinant PDE4 (the amount was controlled so that ˜10% product was formed in 10 min.). The reaction was stopped after 10 min. by the addition of 1 mg of PDE-SPA beads (Amersham Pharmacia Biotech, Inc., Piscataway, N.J.). The product AMP generated was quantified on a Wallac Microbeta® 96-well plate counter (EG&G Wallac Co., Gaithersburg, Md.). The signal in the absence of enzyme was defined as the background. 100% activity was defined as the signal detected in the presence of enzyme and DMSO with the background subtracted. Percentage of inhibition was calculated accordingly. IC50 value was approximated with a non-linear regression fit using the standard 4-parameter/multiple binding sites equation from a ten point titration.
The IC50 values of the Examples disclosed here under were determined with 100 nM cAMP using the purified GST fusion protein of the human recombinant phosphodiesterase IVb (met-248) produced from a baculovirus/Sf-9 expression system.

T1 sequence (Q07343 236-736): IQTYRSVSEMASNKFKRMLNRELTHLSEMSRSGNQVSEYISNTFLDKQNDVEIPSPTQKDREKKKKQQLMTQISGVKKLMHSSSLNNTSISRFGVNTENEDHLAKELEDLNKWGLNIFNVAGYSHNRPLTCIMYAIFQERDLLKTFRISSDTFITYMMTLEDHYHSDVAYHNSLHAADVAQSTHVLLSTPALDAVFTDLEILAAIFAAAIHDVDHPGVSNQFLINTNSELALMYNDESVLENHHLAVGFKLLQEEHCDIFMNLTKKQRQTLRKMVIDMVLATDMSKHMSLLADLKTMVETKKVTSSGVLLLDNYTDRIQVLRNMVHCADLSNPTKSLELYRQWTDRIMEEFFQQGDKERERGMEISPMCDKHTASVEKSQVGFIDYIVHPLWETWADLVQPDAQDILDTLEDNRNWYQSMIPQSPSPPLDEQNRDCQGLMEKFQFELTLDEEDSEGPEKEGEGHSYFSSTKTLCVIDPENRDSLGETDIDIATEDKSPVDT

Point of comparison: `CC(C)(CC(=O)O)c1ccc(-c2cccc(-n3cc(C(=O)NC4CC4)c(=O)c4cccnc43)c2)cc1` [Example 5, 3-{3′-[3-[(Cyclopropylamino)carbonyl]4-oxo-1,8-naphthyridin-1(4H)-yl]-1,1′-biphenyl-4-yl}-3-methylbutanoic acid], pIC50 9.22. Against it:
- O=C(NCC(F)(F)F)c1cn(-c2cccc(-c3ccc([C@@H]4C[C@H]4C(=O)O)cc3)c2)c2ncccc2c1=O (single isomer, unassigned; (+)) [24-(+)-isomer, (+)-(trans)-2-{3′-[4-oxo-3-{[(2,2,2-trifluoroethyl)amino]carbonyl}-1,8-naphthyridin-1(4H)-yl]biphenyl-4-yl}cyclopropanecarboxylic acid] — within 0.2 log units, 9.40
- O=C(NCC(F)(F)F)c1cn(-c2cccc(-c3ccc(C4CC4C(=O)O)c(F)c3)c2)c2ncccc2c1=O (single isomer, unassigned; (+)) [Example 29, (+)-(trans)-2-{3-fluoro-3′-[4-oxo-3-{[(2,2,2-trifluoroethyl)amino]carbonyl}-1,8-naphthyridin-1(4H)-yl]biphenyl-4-yl}cyclopropanecarboxylic acid] — 0.30 log units higher, 9.52
- O=C(NC1CC1)c1cn(-c2cccc(-c3ccc([C@H]4C[C@H]4C(=O)O)cc3)c2)c2ncccc2c1=O (single isomer, unassigned; isomer 2) [8-(−)-isomer, 2-(cis)-{3′-[3-[(Cyclopropylamino)carbonyl]-4-oxo-1,8-naphthyridin-1(4H)-yl]-1,1′-biphenyl-4-yl}cyclopropanecarboxylic acid] — within 0.2 log units, 9.15
- O=C(NC1CC1)c1cn(-c2cccc(-c3ccc(C4CC4C(=O)O)c(F)c3)c2)c2ncccc2c1=O (single isomer, unassigned; isomer 2) [12-(−)-isomer, 2-{3′-[3-[(Cyclopropylamino)carbonyl]-4-oxo-1,8-naphthyridin-1(4H)-yl]-3-fluoro-1,1′-biphenyl-4-yl}cyclopropanecarboxylic acid] — within 0.2 log units, 9.40
- O=C(NC1CC1)c1cn(-c2cccc(-c3cccc(C4CC4C(=O)O)c3)c2)c2ncccc2c1=O (centres unmarked) [Example 2] — 0.48 log units higher, 9.70
- O=C(NC1CC1)c1cn(-c2cccc(-c3ccc(C4CC4C(=O)O)c(Cl)c3)c2)c2ncccc2c1=O (centres unmarked) [Example 17, 2-{3-Chloro-3′-[3-[(cyclopropylamino)carbonyl]-4-oxo-1,8-naphthyridin-1(4H)-yl]-1,1′-biphenyl-4-yl}cyclopropanecarboxylic acid] — 0.78 log units higher, 10.00
- O=C(NCC1CC1)c1cn(-c2cccc(-c3ccc(C4CC4C(=O)O)cc3)c2)c2ncccc2c1=O (centres unmarked) [Example 26, 2-{3′-[3-{[(Cyclopropylmethyl)amino]carbonyl}4-oxo-1,8-naphthyridin-1(4H)-yl]-1,1′-biphenyl-4-yl}cyclopropanecarboxylic acid] — 0.48 log units higher, 9.70
